Reference: ChEMBL document CHEMBL5543132, “Development of (2-(Benzyloxy)phenyl)methanamine Derivatives as Potent and Selective Inhibitors of CARM1 for the Treatment of Melanoma” (J Med Chem, 2024)

Tests used:
[1] = biological target: T1, Histone-arginine methyltransferase CARM1 (Homo sapiens, UniProt Q86X55)
T1 sequence (Q86X55 whole entry): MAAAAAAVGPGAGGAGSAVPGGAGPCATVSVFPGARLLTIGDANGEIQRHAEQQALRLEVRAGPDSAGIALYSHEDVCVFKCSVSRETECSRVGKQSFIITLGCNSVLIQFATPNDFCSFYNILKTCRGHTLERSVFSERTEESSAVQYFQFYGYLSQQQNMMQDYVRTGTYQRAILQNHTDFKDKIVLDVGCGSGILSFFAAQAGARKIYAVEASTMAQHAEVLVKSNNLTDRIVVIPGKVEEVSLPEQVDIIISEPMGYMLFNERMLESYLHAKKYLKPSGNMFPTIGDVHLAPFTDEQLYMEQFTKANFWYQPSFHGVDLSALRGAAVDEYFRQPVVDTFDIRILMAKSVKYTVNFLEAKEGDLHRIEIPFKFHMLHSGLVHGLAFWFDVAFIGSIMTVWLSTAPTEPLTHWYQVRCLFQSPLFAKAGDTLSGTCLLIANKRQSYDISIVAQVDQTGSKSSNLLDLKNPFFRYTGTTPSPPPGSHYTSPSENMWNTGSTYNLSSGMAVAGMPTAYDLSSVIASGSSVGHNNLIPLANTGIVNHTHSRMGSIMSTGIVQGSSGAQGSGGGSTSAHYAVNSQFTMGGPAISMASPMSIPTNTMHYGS
Description: Inhibition of CARM1 (unknown origin)

[2] = biological target: Protein arginine N-methyltransferase 3 (Homo sapiens, UniProt O60678); assay: Inhibition of PRMT3 (unknown origin)
Chain of Protein arginine N-methyltransferase 3 (O60678 whole entry): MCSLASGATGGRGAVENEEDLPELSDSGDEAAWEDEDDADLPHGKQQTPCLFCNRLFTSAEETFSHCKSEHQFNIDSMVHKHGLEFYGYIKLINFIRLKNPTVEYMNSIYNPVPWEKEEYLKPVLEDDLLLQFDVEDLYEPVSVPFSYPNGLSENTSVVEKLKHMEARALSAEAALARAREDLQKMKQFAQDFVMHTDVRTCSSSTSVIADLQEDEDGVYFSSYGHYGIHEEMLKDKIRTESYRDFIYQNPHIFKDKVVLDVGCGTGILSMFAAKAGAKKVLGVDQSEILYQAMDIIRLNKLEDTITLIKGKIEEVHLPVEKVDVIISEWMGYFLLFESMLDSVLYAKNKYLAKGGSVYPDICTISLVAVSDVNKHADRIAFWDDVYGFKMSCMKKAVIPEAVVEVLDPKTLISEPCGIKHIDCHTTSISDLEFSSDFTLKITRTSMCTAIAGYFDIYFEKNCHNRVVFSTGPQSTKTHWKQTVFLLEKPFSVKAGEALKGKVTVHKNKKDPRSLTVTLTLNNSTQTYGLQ

[3] = biological target: Protein arginine N-methyltransferase 6 (Homo sapiens, UniProt Q96LA8); assay: Inhibition of PRMT6 (unknown origin)
Chain of Protein arginine N-methyltransferase 6 (Q96LA8 whole entry): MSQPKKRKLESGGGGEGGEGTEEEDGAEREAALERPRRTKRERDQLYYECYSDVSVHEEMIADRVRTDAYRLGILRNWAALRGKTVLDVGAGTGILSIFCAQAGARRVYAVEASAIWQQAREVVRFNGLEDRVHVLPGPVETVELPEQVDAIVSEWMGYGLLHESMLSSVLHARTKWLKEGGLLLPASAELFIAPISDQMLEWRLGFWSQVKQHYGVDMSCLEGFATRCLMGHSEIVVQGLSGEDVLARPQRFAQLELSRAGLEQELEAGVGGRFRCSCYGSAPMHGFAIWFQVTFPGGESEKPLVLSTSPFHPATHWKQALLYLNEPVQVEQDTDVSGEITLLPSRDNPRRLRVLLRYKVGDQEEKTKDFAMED

[4] = biological target: Protein arginine N-methyltransferase 8 (Homo sapiens, UniProt Q9NR22); assay: Inhibition of PRMT8 (unknown origin)
Chain of Protein arginine N-methyltransferase 8 (Q9NR22 whole entry): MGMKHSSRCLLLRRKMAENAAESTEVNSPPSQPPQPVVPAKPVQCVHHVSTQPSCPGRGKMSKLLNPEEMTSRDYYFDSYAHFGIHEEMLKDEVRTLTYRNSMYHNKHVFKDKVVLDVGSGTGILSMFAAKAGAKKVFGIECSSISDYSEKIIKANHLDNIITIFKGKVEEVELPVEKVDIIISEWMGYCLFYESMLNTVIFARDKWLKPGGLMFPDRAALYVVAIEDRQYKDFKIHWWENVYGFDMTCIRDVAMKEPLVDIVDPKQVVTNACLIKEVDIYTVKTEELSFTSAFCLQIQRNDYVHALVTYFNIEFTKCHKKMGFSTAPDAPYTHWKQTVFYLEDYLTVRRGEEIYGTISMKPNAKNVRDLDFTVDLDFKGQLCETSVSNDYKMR

[5] = biological target: Protein arginine N-methyltransferase 5 (Homo sapiens, UniProt O14744); assay: Inhibition of PRMT5 (unknown origin)
Chain of Protein arginine N-methyltransferase 5 (O14744 whole entry): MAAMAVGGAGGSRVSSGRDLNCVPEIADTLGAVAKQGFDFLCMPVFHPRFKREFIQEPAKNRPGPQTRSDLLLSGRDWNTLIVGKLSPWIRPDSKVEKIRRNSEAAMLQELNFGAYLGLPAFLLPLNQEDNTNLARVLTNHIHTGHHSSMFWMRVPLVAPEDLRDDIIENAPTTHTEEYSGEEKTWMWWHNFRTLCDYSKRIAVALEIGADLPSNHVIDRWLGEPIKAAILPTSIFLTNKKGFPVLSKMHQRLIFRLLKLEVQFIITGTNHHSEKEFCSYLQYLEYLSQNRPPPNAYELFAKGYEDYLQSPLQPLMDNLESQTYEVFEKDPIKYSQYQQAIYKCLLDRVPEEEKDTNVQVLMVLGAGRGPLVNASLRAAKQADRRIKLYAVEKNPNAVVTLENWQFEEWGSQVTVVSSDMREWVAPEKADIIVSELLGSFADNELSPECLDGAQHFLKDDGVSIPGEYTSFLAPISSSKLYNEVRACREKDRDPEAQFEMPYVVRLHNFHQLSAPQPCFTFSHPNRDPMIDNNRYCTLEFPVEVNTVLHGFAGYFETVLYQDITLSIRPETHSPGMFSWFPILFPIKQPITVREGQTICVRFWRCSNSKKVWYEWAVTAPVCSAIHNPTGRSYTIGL

[6] = biological target: T2, Protein arginine N-methyltransferase 7 (Homo sapiens, UniProt Q9NVM4); assay: Inhibition of PRMT7 (unknown origin)
T2 sequence (Q9NVM4 whole entry): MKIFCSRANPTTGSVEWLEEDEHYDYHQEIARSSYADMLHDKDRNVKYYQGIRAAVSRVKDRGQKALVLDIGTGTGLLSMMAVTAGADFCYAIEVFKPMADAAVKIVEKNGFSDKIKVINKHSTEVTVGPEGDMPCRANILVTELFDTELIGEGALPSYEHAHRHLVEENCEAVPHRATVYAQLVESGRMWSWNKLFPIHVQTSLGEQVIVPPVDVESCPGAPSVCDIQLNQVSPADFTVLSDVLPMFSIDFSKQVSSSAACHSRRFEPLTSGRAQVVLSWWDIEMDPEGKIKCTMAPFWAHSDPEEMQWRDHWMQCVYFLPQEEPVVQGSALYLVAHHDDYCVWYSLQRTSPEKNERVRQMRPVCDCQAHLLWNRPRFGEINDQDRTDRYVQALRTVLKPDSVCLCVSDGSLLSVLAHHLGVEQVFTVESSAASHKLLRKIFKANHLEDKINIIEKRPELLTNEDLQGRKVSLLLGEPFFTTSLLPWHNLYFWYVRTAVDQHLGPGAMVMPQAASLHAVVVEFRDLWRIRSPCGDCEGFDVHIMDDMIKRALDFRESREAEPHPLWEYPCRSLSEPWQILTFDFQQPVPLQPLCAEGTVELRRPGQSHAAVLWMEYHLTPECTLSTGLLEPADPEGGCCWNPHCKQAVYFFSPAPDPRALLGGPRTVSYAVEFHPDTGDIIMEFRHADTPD

IC50 [2] [nM]	IC50 [3] [nM]	IC50 [4] [nM]	IC50 [5] [nM]	IC50 [6] [nM]	Structure (SMILES)	IC50 [1] [nM]
					CNCC(O)CN1CCc2c(cccc2OCc2ccc(-c3nccs3)cc2)C1 (stereo unspecified)	21
942	64	73	> 100000	> 100000	CNC[C@H](O)CN(C)Cc1ccccc1OCc1ccc(-c2nccs2)c(Cl)c1	
